“And” between values parts separate entries of the source, which are not always exact repeats. Equal values may be shown once.
Test system: WT ELIC
Assay: Fluorescence stopped-flow liposomal Tl+ flux assay, symmetric liposomes
Format: biochemical, Erwinia chrysanthemi
Parameters: Tl+ flux quenching rate, Avg. / Tl+ flux quenching rate: unit not given here
Settings: for Rate (stopped-flow fluorescence quenching rate) / Avg (stopped-flow fluorescence quenching rate): WT in 2:1:1 PC:PE:PG liposomes; for Rate (stopped-flow fluorescence quenching rate): single experiments; for Avg (stopped-flow fluorescence quenching rate): average of experiments
Method: The fluorescence sequential-mixing stopped-flow liposomal flux measurements were carried using an SX20 stopped-flow spectrofluorometer (Applied Photophysics) and Pro-Data SX software[13],[30]. 7.5 mg of the respective lipid mixture (POPC, 1:1 POPC: POPE, 1:1 POPC:POPG, 3:1 POPC:POPE, 3:1 POPC:POPG, 2:1:1 POPC:POPE:POPG) was dried in a glass vial to a thin film under a constant stream of N2. The lipids were then further dried under vacuum in a desiccator overnight. The following day the lipids were hydrated in 500 µl of reconstitution buffer (100 mM NaNO3, 10 mM HEPES, pH 7) (Buffer R), 250 µl of 75 mM 8-Aminonaphthalene-1,3,6-Trisulfonic Acid (ANTS, ThermoFisher Scientific) in buffer R, and doped with ~18 mg of CHAPS (Anatrace). The mixture was vortexed and then sonicated with heat until completely solubilized. Following the sonication, the solution was brought to RT then 3.5 µl of 6.7 mg/ml ELIC in Buffer A with 0.02% DDM was added (3 µg per mg of lipid). This combined solution was incubated at RT for 30 min, followed by the addition of 1 ml of 1:1 v/v SM-2 BioBeads in Buffer R and an additional 250 µl of 75 mM ANTS in Buffer R. This mixture was incubated at RT for 2.5 hr with gentle mixing. The liposome suspension was then extruded with an Avanti mini-extruder and 0.1 µm membrane (30×). The extruded liposomes were stored at 13 °C overnight with gentle rotation. The next day, the liposomes were diluted to 2.5 mL using assay buffer (140 mM NaNO3, 10 mM HEPES, pH 7) (Stopped-flow Buffer A), loaded into a PD-10 desalting column (Cytiva), eluted with 3 mL of Stopped-flow Buffer A and subsequently diluted 5-fold with Stopped-flow Buffer A.
Using propylamine as the agonist, the assay and analysis was carried out as previously described[13],[30]. ELIC-containing liposomes were first mixed 1:1 with Buffer A containing 2× the concentration of propylamine. After a variable delay of 10 ms to 25 s, the sample was then mixed 1:1 with a quenching buffer (90 mM NaNO3, 50 mM TlNO3, 10 mM HEPES, pH 7), and ANTS fluorescence (ex. 360 nm, fluorescence above 420 nm) was recorded for 1 s. For each delay time, 5 repeat measurements were obtained. The data were collected using Applied Photophysics Pro-Data SX software. The fluorescence quenching traces were fit to a stretched exponential (Eq. 2a) and the rate of Tl^+ influx was determined at 2 ms (Eq. 2b).2a Ft=F∞+F0−F∞⋅e^−t/τ^β 2b kt=β/τ⋅2ms/τ^(β−1) where Ft, F∞, F0 are the fluorescence at time t, final fluorescence and initial fluorescence. τ is the time constant, β the stretched exponential factor, and kt the calculated rate of Tl^+ influx at 2 ms. The time course of desensitization was also fit to a double exponential and a weighted time constant was calculated as was done for the patch-clamp data using Origin 2019b. All replicates were taken from independent samples.

## CCCN [propylamine]
WT 3:1 PC:PG 10 mM PA, delay 0.05 s
  Tl+ flux quenching rate, Avg.: 6.577
WT 3:1 PC:PG 10 mM PA, delay 0.1 s
  Tl+ flux quenching rate, Avg.: 5.156
WT 3:1 PC:PG 10 mM PA, delay 0.25 s
  Tl+ flux quenching rate, Avg.: 10.2935
WT 3:1 PC:PG 10 mM PA, delay 0.5 s
  Tl+ flux quenching rate, Avg.: 10.5897
WT 3:1 PC:PG 10 mM PA, delay 1 s
  Tl+ flux quenching rate, Avg.: 10.9346
WT 3:1 PC:PG 10 mM PA, delay 2.5 s
  Tl+ flux quenching rate, Avg.: 9.589
WT 3:1 PC:PG 10 mM PA, delay 5 s
  Tl+ flux quenching rate, Avg.: 8.149
WT 3:1 PC:PG 10 mM PA, delay 10 s
  Tl+ flux quenching rate, Avg.: 1.496
WT 3:1 PC:PG 10 mM PA, delay 25 s
  Tl+ flux quenching rate, Avg.: 1.028
WT PC 10 mM PA, delay 0.01 s
  Tl+ flux quenching rate, Avg.: 3.242
WT PC 10 mM PA, delay 0.025 s
  Tl+ flux quenching rate, Avg.: 7.793
WT PC 10 mM PA, delay 0.05 s
  Tl+ flux quenching rate, Avg.: 10.0904
WT PC 10 mM PA, delay 0.1 s
  Tl+ flux quenching rate, Avg.: 10.8806
WT PC 10 mM PA, delay 0.25 s
  Tl+ flux quenching rate, Avg.: 11.6946
WT PC 10 mM PA, delay 1 s
  Tl+ flux quenching rate, Avg.: 9.9293
WT PC 10 mM PA, delay 2.5 s
  Tl+ flux quenching rate, Avg.: 4.516
WT PC 10 mM PA, delay 5 s
  Tl+ flux quenching rate, Avg.: 0.8684
WT PC 10 mM PA, delay 10 s
  Tl+ flux quenching rate, Avg.: 0.09487
WT PC 10 mM PA, delay 25 s
  Tl+ flux quenching rate, Avg.: 0.1384
WT PC 10 mM PA, delay printed 0.05 (line r87, between 0.25 and 1)
  Tl+ flux quenching rate, Avg.: 13.718
0.3 mM PA, delay time 0
  Rate (stopped-flow fluorescence quenching rate): 0
0.3 mM PA, delay time 0.025
  Avg (stopped-flow fluorescence quenching rate): 0.05393
0.3 mM PA, delay time 0.05
  Avg (stopped-flow fluorescence quenching rate): 0.1144
0.3 mM PA, delay time 0.1
  Avg (stopped-flow fluorescence quenching rate): 0.02985
0.3 mM PA, delay time 0.1, listed as PA
  Rate (stopped-flow fluorescence quenching rate): 0.02819 and 0.02444 and 0.03693
0.3 mM PA, delay time 0.25
  Avg (stopped-flow fluorescence quenching rate): 0.2226
0.3 mM PA, delay time 0.5
  Avg (stopped-flow fluorescence quenching rate): 0.07829
0.3 mM PA, delay time 0.5, listed as PA
  Rate (stopped-flow fluorescence quenching rate): 0.05209 and 0.08034 and 0.1024
0.3 mM PA, delay time 1
  Avg (stopped-flow fluorescence quenching rate): 0.1269
0.3 mM PA, delay time 2.5
  Avg (stopped-flow fluorescence quenching rate): 0.07966
0.3 mM PA, delay time 5
  Avg (stopped-flow fluorescence quenching rate): 0.1012
0.3 mM PA, delay time 10
  Avg (stopped-flow fluorescence quenching rate): 0.07302
0.3 mM PA, delay time 25
  Avg (stopped-flow fluorescence quenching rate): 0.144
0.3 mM PA, delay time 25, listed as PA
  Rate (stopped-flow fluorescence quenching rate): 0.1101 and 0.1736 and 0.1484
1 mM PA, delay time 0
  Rate (stopped-flow fluorescence quenching rate): 0
1 mM PA, delay time 0.025
  Avg (stopped-flow fluorescence quenching rate): 0.05821
1 mM PA, delay time 0.05
  Avg (stopped-flow fluorescence quenching rate): 0.3418
1 mM PA, delay time 0.1
  Avg (stopped-flow fluorescence quenching rate): 0.7543
1 mM PA, delay time 0.25
  Avg (stopped-flow fluorescence quenching rate): 9.601
1 mM PA, delay time 0.5
  Avg (stopped-flow fluorescence quenching rate): 9.433
1 mM PA, delay time 1
  Avg (stopped-flow fluorescence quenching rate): 13.1765
1 mM PA, delay time 2.5
  Avg (stopped-flow fluorescence quenching rate): 13.927
1 mM PA, delay time 5
  Avg (stopped-flow fluorescence quenching rate): 16.0207
1 mM PA, delay time 10
  Avg (stopped-flow fluorescence quenching rate): 13.7137
1 mM PA, delay time 25
  Avg (stopped-flow fluorescence quenching rate): 8.387
3 mM PA, delay time 0
  Rate (stopped-flow fluorescence quenching rate): 0
3 mM PA, delay time 0.05
  Avg (stopped-flow fluorescence quenching rate): 279.785
3 mM PA, delay time 0.1
  Avg (stopped-flow fluorescence quenching rate): 279.666
3 mM PA, delay time 0.25
  Avg (stopped-flow fluorescence quenching rate): 300.719
3 mM PA, delay time 0.5
  Avg (stopped-flow fluorescence quenching rate): 352.59
3 mM PA, delay time 1
  Avg (stopped-flow fluorescence quenching rate): 284.973
3 mM PA, delay time 2.5
  Avg (stopped-flow fluorescence quenching rate): 176.344
